Earlier results, collected in EP0341603A2, “Atrial peptide derivatives” (ABBOTT LABORATORIES, priority 1988, dated 1989).
Bridge positions count the residues as written; N and C are the ends. Ends that are not written are not given here.

Settings: relative to furosemide

Q: Which “diuretic action, times as strong as that of furosemide” value does the source give for “alpha-hANP: alpha-human atrial natriuretic polypeptide isolated from human atrium, a polypeptide consisting of 28 amino acids (SLRRSSCFGGRMDRIGAQSGLGCNSFRY; disulfide 7-23 (inferred); ends not checked; UniProt P01160 124-151, looked up)” here?
A: about 1000 times
